For the assay, the target named is T1, human zDHHC2 (Homo sapiens, UniProt Q9UIJ5).
T1 construct: expressed in transfected cells; host or cells: HEK293T
T1 sequence (Q9UIJ5 1-367): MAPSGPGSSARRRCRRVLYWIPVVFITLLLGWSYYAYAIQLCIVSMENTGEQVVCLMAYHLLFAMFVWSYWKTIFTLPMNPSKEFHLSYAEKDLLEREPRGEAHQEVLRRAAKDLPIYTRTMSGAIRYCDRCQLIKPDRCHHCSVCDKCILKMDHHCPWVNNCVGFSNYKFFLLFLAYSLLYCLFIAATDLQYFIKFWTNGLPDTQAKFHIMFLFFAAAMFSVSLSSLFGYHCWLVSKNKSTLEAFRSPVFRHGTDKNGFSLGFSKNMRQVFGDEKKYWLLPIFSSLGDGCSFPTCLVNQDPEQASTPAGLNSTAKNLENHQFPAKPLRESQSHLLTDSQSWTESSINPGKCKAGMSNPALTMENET
The experiment in a line: S-acylation (autoacylation) of HA-zDHHC2 in HEK293T cells, click chemistry. The format is cell-based. Conditions: resynthesized UoS compounds, 25 μM, p < 0.001 vs DMSO. On the procedure:
Figure 8 Activity of TTZ-1 (UoS) and TTZ-2 (UoS) against human zDHHC2 autoacylation expressed in mammalian cells. HEK293T cells were transfected with either the control plasmid pEF-BOS-HA (pEF) or a plasmid encoding HA-tagged human zDHHC2 (zD2) for 24 h. Cells were then preincubated for 4 h with UoS compounds TTZ-1 (UoS) (A) or TTZ-2 (UoS) (B) (25 μM final) or DMSO control before metabolic labeling with 100 μM C16:0-azide for 4 h. Cells were lysed, and proteins having incorporated C16:0-azide were labeled by click chemistry with an alkyne-IR800 dye. Protein samples were then resolved by SDS-PAGE, and the gel was scanned for the detection of the click chemistry signal in the infrared-800 channel. […] Two independent experiments were performed in sextuplicate, and the quantification data were gathered on the graphs below each set of membranes. […]
HEK293T cells were plated on poly-D-lysine–coated 24-well plates (catalog no.: 356413; Corning BioCoat, VWR) and transfected with 2.4 μg of pEF-zDHHC2 plasmid (or the control empty plasmid pEF-BOS-HA) for the measurement of zDHHC2 autoacylation and 4.8 μl of Lipofectamine 2000 (Invitrogen). […] Membranes were first stained with Revert 700 total protein stain kit (catalog no.: 926-11016; LI-COR), imaged, destained, and then analyzed by immunoblotting. Signals were quantified with ImageStudio software (LI-COR). […]

Take `O=C(Nc1cccc2c1OC(c1nnn[nH]1)CN2)c1ccc(OCCCCc2ccccc2)cc1` (centres unmarked) [TTZ-2, N-(2-(1H-Tetrazol-5-yl)-3,4-dihydro-2H-benzo[b][1,4]oxazin-8-yl)-4-(4-phenylbutoxy)benzamide]: the “S-acylation of HA-zDHHC2 in HEK293T cells” value is recorded as “significantly reduced”.

With `CCCCCCCOc1ccc(C(=O)Nc2cccc3c2OC(c2nnn[nH]2)CN3)cc1` (centres unmarked) [TTZ-1, N-(2-(1H-Tetrazol-5-yl)-3,4-dihydro-2H-benzo[b][1,4]oxazin-8-yl)-4-(heptyloxy)benzamide], the “S-acylation of HA-zDHHC2 in HEK293T cells” value is listed as “significantly reduced”.

These data come from article PMC9558053, “Development of a novel high-throughput screen for the identification of new inhibitors of protein S-acylation” (The Journal of Biological Chemistry, 2022).
